We go through 52 compounds from publication PMC11995724, “Antibiotic target discovery by integrated phenotypic and activity-based profiling of electrophilic fragments” (Cell chemical biology, 2025).

This data set in a line: in vitro. The conditions noted are these: human, hek293t cells.
`C=CC(=O)N(Cc1cccc2cccnc12)C1CCCN(CC)C1` (stereo not shown) [1-H11, N-(1-ethylpiperidin-3-yl)-N-[(quinolin-8-yl)methyl]prop-2-enamide]: the viability at 48 h, 25 µM amounted to 55.3%.
To `C=CC(=O)N1CCN(C(=O)c2ccc(OC)c(OC)c2OC)CC1` [1-H12, 1-[4-(2,3,4-trimethoxybenzoyl)piperazin-1-yl]prop-2-en-1-one] belongs 80%; to `C=CC(=O)N(Cc1noc2c1CCCC2)CC1CCCC1` [1-H13, N-(cyclopentylmethyl)-N-[(4,5,6,7-tetrahydro-1,2-benzoxazol-3-yl)methyl]prop-2-enamide], 113%.
The figure for `C=CC(=O)NCC(C)Cn1nccc1C` (stereo not shown) [1-H14, N-[2-methyl-3-(5-methyl-1H-pyrazol-1-yl)propyl]prop-2-enamide] is 87.8%.
To `C=CC(=O)N(Cc1cc2ccccn2n1)CC1(O)CCCCC1` [1-H15, N-[(1-hydroxycyclohexyl)methyl]-N-({pyrazolo[1,5-a]pyridin-2-yl}methyl)prop-2-enamide] belongs 102%; to `C=CC(=O)Nc1cc(OC)cc(S(C)(=O)=O)c1` [1-H16, N-(3-methanesulfonyl-5-methoxyphenyl)prop-2-enamide], 84.1%; to `C=CC(=O)NC1COC(C)C1` (stereo not shown) [1-H17, N-(5-methyloxolan-3-yl)prop-2-enamide], 106%.
As to `C=CC(=O)N1CCN(CC2CCOC2)CC1` (stereo not shown) [1-H18, 1-{4-[(oxolan-3-yl)methyl]piperazin-1-yl}prop-2-en-1-one], the viability at 48 h, 25 µM came out at 49.6%.
To `C=CC(=O)NCc1nnc2ccccn12` [1-H19, N-({[1,2,4]triazolo[4,3-a]pyridin-3-yl}methyl)prop-2-enamide] belongs 182%.
To `C=CC(=O)NCc1ccnn1C` [1-H20, N-[(1-methyl-1H-pyrazol-5-yl)methyl]prop-2-enamide] belongs 58%; to `C=CC(=O)NC1Cc2ccccc2C1=O` (stereo not shown) [1-H21, N-(1-oxo-2,3-dihydro-1H-inden-2-yl)prop-2-enamide], 156%.
To `C=CC(=O)NCc1cccc(OC)n1` [1-H22, N-[(6-methoxypyridin-2-yl)methyl]prop-2-enamide] belongs 79.2%; to `C=CC(=O)NC(=O)NCc1ccccc1` [1-I04, 1-benzyl-3-(prop-2-enoyl)urea], 0.515%; to `C=CC(=O)N1CCC(C(=O)NCc2ccccc2)CC1` [1-I05, N-benzyl-1-(prop-2-enoyl)piperidine-4-carboxamide], 86.7%.
`C=CC(=O)NCc1cscn1` [1-I07, N-[(1,3-thiazol-4-yl)methyl]prop-2-enamide]: the viability at 48 h, 25 µM worked out at 69.5%.
The figure for `C=CC(=O)N(C)CCCn1c(=O)c(C)nc2ccccc21` [1-I08, N-methyl-N-[3-(3-methyl-2-oxo-1,2-dihydroquinoxalin-1-yl)propyl]prop-2-enamide] is 76.3%.
To `C=CC(=O)Nc1conc1-c1ccccc1` [1-I09, N-(3-phenyl-1,2-oxazol-4-yl)prop-2-enamide] belongs 59.1%; to `C=CC(=O)Nc1ccc(Cl)cc1F` [1-I10, N-(4-chloro-2-fluorophenyl)prop-2-enamide], 47.1%.
The figure for `C=CC(=O)NCc1cc(-c2cccc(OC)c2)no1` [1-I11, N-{[3-(3-methoxyphenyl)-1,2-oxazol-5-yl]methyl}prop-2-enamide] is 76.7%.
For the compound `C=CC(=O)NCc1nc2ccccc2s1` [1-I12, N-[(1,3-benzothiazol-2-yl)methyl]prop-2-enamide], the viability at 48 h, 25 µM stood at 35.8%.
To `C=CC(=O)NCC(c1c(F)cccc1F)N1CC(C)OC(C)C1` (stereo not shown) [1-I13, N-[2-(2,6-difluorophenyl)-2-(2,6-dimethylmorpholin-4-yl)ethyl]prop-2-enamide] belongs 72.5%; to `C=CC(=O)NCc1ccnc(N2CCSCC2)c1` [1-I14, N-{[2-(thiomorpholin-4-yl)pyridin-4-yl]methyl}prop-2-enamide], 22.1%.
The figure for `C=CC(=O)N[C@@H](CC(N)=O)c1cccc(Cl)c1` [1-I15, N-[(1S)-2-carbamoyl-1-(3-chlorophenyl)ethyl]prop-2-enamide] is 81.6%; for `C=CC(=O)Nc1ccc(C(C)CC(N)=O)cc1` (stereo not shown) [1-I16, 3-[4-(prop-2-enamido)phenyl]butanamide] it is 72.6%; for `C=CC(=O)Nc1ccc(-n2cnnn2)c(F)c1` [1-I17, N-[3-fluoro-4-(1H-1,2,3,4-tetrazol-1-yl)phenyl]prop-2-enamide] it is 39.9%.
To `C=CC(=O)NCc1cccc(-c2nnc[nH]2)c1` [1-I18, N-{[3-(4H-1,2,4-triazol-3-yl)phenyl]methyl}prop-2-enamide] belongs 172%; to `C=CC(=O)Nc1cc(CC(C)(C)C)no1` [1-I19, N-[3-(2,2-dimethylpropyl)-1,2-oxazol-5-yl]prop-2-enamide], 1.69%; to `C=CC(=O)N1CCC(C(=O)Nc2cc(OCC)ccc2Cl)CC1` [1-I20, N-(2-chloro-5-ethoxyphenyl)-1-(prop-2-enoyl)piperidine-4-carboxamide], 122%.
`C=CC(=O)Nc1cc(C(C)C)ccc1C(C)C` [1-I21, N-[2,5-bis(propan-2-yl)phenyl]prop-2-enamide]: the viability at 48 h, 25 µM was 101%.
To `C=CC(=O)Nc1ccc(F)c(C(=O)CC)c1` [1-I22, N-(4-fluoro-3-propanoylphenyl)prop-2-enamide] belongs 101%; to `C=CC(=O)NCc1ccccc1S(=O)(=O)NC(C)(C)C` [1-J03, N-{[2-(tert-butylsulfamoyl)phenyl]methyl}prop-2-enamide], 160%; to `C=CC(=O)NCC(C)(C)Cn1cccn1` [1-J04, N-[2,2-dimethyl-3-(1H-pyrazol-1-yl)propyl]prop-2-enamide], 69.4%.
To `C=CC(=O)N1CCCC1Cn1c(C)nc2ccccc21` (stereo not shown) [1-J05, 1-{2-[(2-methyl-1H-1,3-benzodiazol-1-yl)methyl]pyrrolidin-1-yl}prop-2-en-1-one] belongs 149%; to `C=CC(=O)NC1CCSC(C)C1` (stereo not shown) [1-J06, N-(2-methylthian-4-yl)prop-2-enamide], 78.4%; to `C=CC(=O)N1CCN(S(=O)(=O)Cc2ccon2)CC1` [1-J07, 1-{4-[(1,2-oxazol-3-yl)methanesulfonyl]piperazin-1-yl}prop-2-en-1-one], 112%.
In the case of `C=CC(=O)Nc1cccc(-c2nc(COC)no2)c1C` [1-J08, N-{3-[3-(methoxymethyl)-1,2,4-oxadiazol-5-yl]-2-methylphenyl}prop-2-enamide], the viability at 48 h, 25 µM stood at 79%.
Turning to `C=CC(=O)N(Cc1c(C)cc(Cl)cc1C)CC1COCCO1` (stereo not shown) [1-J09, N-[(4-chloro-2,6-dimethylphenyl)methyl]-N-[(1,4-dioxan-2-yl)methyl]prop-2-enamide], the viability at 48 h, 25 µM came out at 81.4%.
As for `C=CC(=O)NCc1cnc(CC(C)C)s1` [1-J10, N-{[2-(2-methylpropyl)-1,3-thiazol-5-yl]methyl}prop-2-enamide], the viability at 48 h, 25 µM is 84.2%.
The figure for `C=CC(=O)N(Cc1cn(C)cn1)[C@H]1CCCc2ccc(C)cc21` [1-J11, N-[(1S)-7-methyl-1,2,3,4-tetrahydronaphthalen-1-yl]-N-[(1-methyl-1H-imidazol-4-yl)methyl]prop-2-enamide] is 88.8%; for `C=CC(=O)Nc1nc(C)c(CC(C)C)s1` [1-J12, N-[4-methyl-5-(2-methylpropyl)-1,3-thiazol-2-yl]prop-2-enamide] it is 0.934%.
To `C=CC(=O)Nc1cc(OC)ccc1C(=O)N(C)OC` [1-J14, N,4-dimethoxy-N-methyl-2-(prop-2-enamido)benzamide] belongs 74.9%; to `C=CC(=O)N(Cc1cc(-c2ccco2)n(C)n1)C1CCCCC1` [1-J15, N-cyclohexyl-N-{[5-(furan-2-yl)-1-methyl-1H-pyrazol-3-yl]methyl}prop-2-enamide], 83.8%; to `C=CC(=O)Nc1ncc(C2CCCC(C)C2)s1` (stereo not shown) [1-J16, N-[5-(3-methylcyclohexyl)-1,3-thiazol-2-yl]prop-2-enamide], 0.801%.
To `C=CC(=O)NCc1cn([C@@H]2COC[C@H]2OC)nn1` [1-J17, N-({1-[(3R,4S)-4-methoxyoxolan-3-yl]-1H-1,2,3-triazol-4-yl}methyl)prop-2-enamide] belongs 96.5%; to `C=CC(=O)N1CCCC(S(C)(=O)=O)C1` (stereo not shown) [1-J18, 1-(3-methanesulfonylpiperidin-1-yl)prop-2-en-1-one], 63.9%.
Take `C=CC(=O)NCc1ccccc1-n1ccc(C)n1` [1-J19, N-{[2-(3-methyl-1H-pyrazol-1-yl)phenyl]methyl}prop-2-enamide]: the viability at 48 h, 25 µM came to 126%.
The figure for `C=CC(=O)N1CCN(c2nc(CC)ns2)CC1` [1-J20, 1-[4-(3-ethyl-1,2,4-thiadiazol-5-yl)piperazin-1-yl]prop-2-en-1-one] is 46.2%.
The figure for `C=CC(=O)Nc1nc2c(s1)-c1cc(OC)ccc1CC2` [1-J21, N-{8-methoxy-4H,5H-naphtho[2,1-d][1,3]thiazol-2-yl}prop-2-enamide] is 118%; for `C=CC(=O)Nc1sc2c(c1C(=O)c1ccc(C)cc1)CCOC2` [1-J22, N-[3-(4-methylbenzoyl)-4H,5H,7H-thieno[2,3-c]pyran-2-yl]prop-2-enamide] it is 0.993%; for `C=CC(=O)NCc1nc(C(=O)O)c(C)s1` [1-K03, 5-methyl-2-[(prop-2-enamido)methyl]-1,3-thiazole-4-carboxylic acid] it is 80.8%.
The figure for `C=CC(=O)Nc1cccc(N2CCOCC2)c1` [1-K04, N-[3-(morpholin-4-yl)phenyl]prop-2-enamide] is 74.1%.
In the case of `C=CC(=O)N1CCN(c2nc3ccccc3o2)CC1` [1-K05, 1-[4-(1,3-benzoxazol-2-yl)piperazin-1-yl]prop-2-en-1-one], the viability at 48 h, 25 µM was found to be 75.6%.
